Laboratory results published in patent US20230119254A1, “SYNERGISTIC AND TARGETING COMPOSITIONS FOR TREATMENT OF ARTERIAL AND VENOUS THROMBOSIS” (AstraZeneca AB, priority 2020, published 2023).

How the values were obtained:
[1] = tested on: arterial thrombosis; experiment: Electrical injury model (EIM) of arterial thrombosis in rabbits; assay type: in vivo, rabbit
Method: Rabbits were randomized into the following eleven groups with the treatments initiated 30 min before electrical injury.
Electrical injury generated occlusion in 60% of the rabbits treated with saline within 2 h. Average thrombosis weight was 7.8 mg.

[2] = tested on: thrombin generation in human platelet rich plasma; experiment: Thrombin generation by calibrated automated thrombography (CAT) in ADP-activated human PRP; assay type: cell-based; conditions: 20 uM ADP-activated human platelets, equal molar concentrations
Method: Shown are thrombograms of nanomolar thrombin that were generated in human platelet rich plasma activated with […].
Thrombin generation in citrated human platelet rich plasma (PRP) was quantified by calibrated automated thrombography (CAT) using the Thrombinoscope system (Synapse), according to methods developed by Hemker et al. Aliquots of PRP were incubated with agents for 15 min at room temperature, and then for 5 min at 37° C. in wells of 96-well plates. Thrombin generation was initiated by addition of 0.5 pM tissue factor and CaCl2 to 16.7 mM and monitored in a microtiter plate fluorometer (Fluoroskan Ascent, Thermo Electron Corp., Vantaa, Finland). Thrombograms (nM thrombin generated vs. time) were generated using the Thrombinoscope software, as were key thrombin generation parameters: lag time to onset of thrombin generation (min), peak thrombin concentration (nM), time to peak thrombin (min), and endogenous thrombin potential (ETP; integrated area under the thrombogram curve).
The effects of APT102, annexin V, APT102+annexin V, and APT402 at equal molar concentrations on thrombin generation from 20 uM ADP-activated human platelets were compared using CAT assays (FIG. 3). […] These features were mimicked by APT402.

[3] = comparison value for annexin V; cited from earlier work
[4] = rabbit EIM, group doses of the 2nd table

## CC[C@H](C)[C@H](NC(=O)[C@H](CCC(=O)O)NC(=O)[C@H](CCC(=O)O)NC(=O)[C@H](Cc1ccccc1)NC(=O)[C@H](CC(=O)O)NC(=O)CNC(=O)[C@H](CC(N)=O)NC(=O)CNC(=O)CNC(=O)CNC(=O)CNC(=O)[C@@H]1CCCN1C(=O)[C@H](CCCNC(=N)N)NC(=O)[C@@H]1CCCN1C(=O)[C@H](N)Cc1ccccc1)C(=O)N1CCC[C@H]1C(=O)N[C@@H](CCC(=O)O)C(=O)N[C@@H](CCC(=O)O)C(=O)N[C@@H](Cc1ccc(O)cc1)C(=O)N[C@@H](CC(C)C)C(=O)O [bivalirudin, Bivalirudin, reference compound]
[1]; [4]
  partial thromboplastin time: increased
  prothrombin time: increased
[1]; rabbit EIM, group doses of the 2nd table, BT measurement ceiling 5 min
  bleeding time (BT): prolonged

## COC(=O)[C@H](c1ccccc1Cl)N1CCc2sccc2C1 [clopidogrel, Clopidogrel, reference compound]
[1]; rabbit, in vivo
  bleeding time (BT): prolonged

## CCCSc1nc(N[C@@H]2C[C@H]2c2ccc(F)c(F)c2)c2nnn([C@@H]3C[C@H](OCCO)[C@@H](O)[C@H]3O)c2n1 [ticagrelor, reference compound]
[1]; rabbit EIM, ticagrelor 10 mg/kg oral, bivalirudin 5 mg/kg IV bolus then 5 mg/kg/h
  occlusion within 2 h: completely prevented occlusion
[1]; rabbit, in vivo
  bleeding time (BT): prolonged
  partial thromboplastin time: increased

## annexin V: protein that binds phosphatidyl serine on activated platelets in competition with prothrombinase complex
[2]
  peak thrombin concentration: modestly decreasing
  time to peak thrombin: significantly increased
[3]
  distribution half-life: 5 min
  elimination half-life: 20 min
